Laboratory results taken from patent publication US7964531B2, “3-phenoxy-4-pyridazinol derivatives and herbicidal composition containing the same” (Mitsui Chemicals Agro, Inc., priority 2001, dated 2011).

Legend:
Format in all cases: in vivo
Conditions in all cases: wettable powder applied 3 days after transplanting, judged after 25 days
[1] = tested on: Cyperus serotinus; assay: Test Example 1: herbicidal effects, paddy-field pot test
How it was run: (§1)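 Herbicidal effect and crop injury were rated 0 (0-10% inhibition) to 5 (91-100%) 25 days after treatment. Water-diluted wettable powder was applied to flooded greenhouse pots 3 days after transplanting 2.2-leaf rice. The pots held seeded weeds and sprouted Cyperus serotinus tubers.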

[2] = tested on: barnyardgrass (Echinochloa oryzicola Vasing.); assay: as above
How it was run: as §1

[3] = tested on: Scirpus joncoides; assay: as above
How it was run: as §1

[4] = tested on: annual broad-leaved weeds (Lindernia spp., Rotala indica); assay: as above
How it was run: as §1

[5] = tested on: transplanted paddy-field rice; assay: Test Example 1: crop injury against transplanted paddy-field rice
How it was run: as §1

Row | Structure (SMILES) | Herbicidal effects Cyperus serotinus ([1]; chemical dosage 10 g/a) | Herbicidal effects Cyperus serotinus ([1]; chemical dosage 20 g/a) | Herbicidal effects Barnyard grass ([2]; chemical dosage 10 g/a) | Herbicidal effects Barnyard grass ([2]; chemical dosage 20 g/a) | Herbicidal effects Scirpus joncoides ([3]; chemical dosage 10 g/a) | Herbicidal effects Scirpus joncoides ([3]; chemical dosage 20 g/a) | Herbicidal effects Broad leaf ([4]; chemical dosage 10 g/a) | Herbicidal effects Broad leaf ([4]; chemical dosage 20 g/a) | Crop injury against transplanted rice ([5]; chemical dosage 10 g/a) | Crop injury against transplanted rice ([5]; chemical dosage 20 g/a) | Herbicidal effects Cyperus serotinus ([1]; chemical dosage 12.5 g/a) | Herbicidal effects Cyperus serotinus ([1]; chemical dosage 25 g/a) | Herbicidal effects Barnyard grass ([2]; chemical dosage 12.5 g/a) | Herbicidal effects Barnyard grass ([2]; chemical dosage 25 g/a) | Herbicidal effects Scirpus joncoides ([3]; chemical dosage 12.5 g/a) | Herbicidal effects Scirpus joncoides ([3]; chemical dosage 25 g/a) | Herbicidal effects Broad leaf ([4]; chemical dosage 12.5 g/a) | Herbicidal effects Broad leaf ([4]; chemical dosage 25 g/a) | Crop injury against transplanted rice ([5]; chemical dosage 12.5 g/a) | Crop injury against transplanted rice ([5]; chemical dosage 25 g/a)
1 | CCc1cccc(C)c1Oc1nnc(Cl)cc1O [Example 260] | 5 (Growth inhibition rate; 91 to 100%) | 5 (Growth inhibition rate; 91 to 100%) | 2 (Growth inhibition rate; 31 to 50%) | 3 (Growth inhibition rate; 51 to 70%) | 5 (Growth inhibition rate; 91 to 100%) | 5 (Growth inhibition rate; 91 to 100%) | 5 (Growth inhibition rate; 91 to 100%) | 5 (Growth inhibition rate; 91 to 100%) | 0 (Growth inhibition rate; 0 to 10%) | 0 (Growth inhibition rate; 0 to 10%) | – | – | – | – | – | – | – | – | – | –
2 | COc1cccc(F)c1Oc1nnc(Cl)cc1O [Example 239] | – | 4 (Growth inhibition rate; 71 to 90%) | – | 0 (Growth inhibition rate; 0 to 10%) | – | 5 (Growth inhibition rate; 91 to 100%) | – | 5 (Growth inhibition rate; 91 to 100%) | – | 0 (Growth inhibition rate; 0 to 10%) | – | – | – | – | – | – | – | – | – | –
3 | Cc1cc(C)c(C)c(Oc2nnc(Cl)cc2O)c1C [Example 320] | – | – | – | – | – | – | – | – | – | – | 5 (Growth inhibition rate; 91 to 100%) | 5 (Growth inhibition rate; 91 to 100%) | 1 (Growth inhibition rate; 11 to 30%) | 2 (Growth inhibition rate; 31 to 50%) | 5 (Growth inhibition rate; 91 to 100%) | 5 (Growth inhibition rate; 91 to 100%) | 5 (Growth inhibition rate; 91 to 100%) | 5 (Growth inhibition rate; 91 to 100%) | 0 (Growth inhibition rate; 0 to 10%) | 0 (Growth inhibition rate; 0 to 10%)
4 | CC(C)c1cccc(F)c1Oc1nnc(Cl)cc1O [Example 235] | 5 (Growth inhibition rate; 91 to 100%) | 5 (Growth inhibition rate; 91 to 100%) | 3 (Growth inhibition rate; 51 to 70%) | 3 (Growth inhibition rate; 51 to 70%) | 5 (Growth inhibition rate; 91 to 100%) | 5 (Growth inhibition rate; 91 to 100%) | 5 (Growth inhibition rate; 91 to 100%) | 5 (Growth inhibition rate; 91 to 100%) | 0 (Growth inhibition rate; 0 to 10%) | 0 (Growth inhibition rate; 0 to 10%) | – | – | – | – | – | – | – | – | – | –
5 | Oc1cc(Cl)nnc1Oc1c(Cl)cccc1Cl [Example 240] | – | – | – | – | – | – | – | – | – | – | 5 (Growth inhibition rate; 91 to 100%) | 5 (Growth inhibition rate; 91 to 100%) | 2 (Growth inhibition rate; 31 to 50%) | 3 (Growth inhibition rate; 51 to 70%) | 3 (Growth inhibition rate; 51 to 70%) | 4 (Growth inhibition rate; 71 to 90%) | 5 (Growth inhibition rate; 91 to 100%) | 5 (Growth inhibition rate; 91 to 100%) | 0 (Growth inhibition rate; 0 to 10%) | 0 (Growth inhibition rate; 0 to 10%)
6 | Oc1cc(Cl)nnc1Oc1c(Cl)cccc1I [Example 241] | 5 (Growth inhibition rate; 91 to 100%) | 5 (Growth inhibition rate; 91 to 100%) | 1 (Growth inhibition rate; 11 to 30%) | 3 (Growth inhibition rate; 51 to 70%) | 3 (Growth inhibition rate; 51 to 70%) | 4 (Growth inhibition rate; 71 to 90%) | 5 (Growth inhibition rate; 91 to 100%) | 5 (Growth inhibition rate; 91 to 100%) | 0 (Growth inhibition rate; 0 to 10%) | 0 (Growth inhibition rate; 0 to 10%) | – | – | – | – | – | – | – | – | – | –
7 | Cc1cccc(C)c1Oc1nnc(Cl)cc1O [Example 21] | 5 (Growth inhibition rate; 91 to 100%) | – | 2 (Growth inhibition rate; 31 to 50%) | – | 5 (Growth inhibition rate; 91 to 100%) | – | 5 (Growth inhibition rate; 91 to 100%) | – | 0 (Growth inhibition rate; 0 to 10%) | – | – | – | – | – | – | – | – | – | – | –
8 | Cc1ccc(C(C)C)c(Oc2nnc(Cl)cc2O)c1 [Example 212] | – | – | – | – | – | – | – | – | – | – | 5 (Growth inhibition rate; 91 to 100%) | 5 (Growth inhibition rate; 91 to 100%) | 1 (Growth inhibition rate; 11 to 30%) | 2 (Growth inhibition rate; 31 to 50%) | 5 (Growth inhibition rate; 91 to 100%) | 5 (Growth inhibition rate; 91 to 100%) | 5 (Growth inhibition rate; 91 to 100%) | 5 (Growth inhibition rate; 91 to 100%) | 0 (Growth inhibition rate; 0 to 10%) | 0 (Growth inhibition rate; 0 to 10%)
9 | CCOc1cccc(C2CC2)c1Oc1nnc(Cl)cc1O [Example 277] | 5 (Growth inhibition rate; 91 to 100%) | 5 (Growth inhibition rate; 91 to 100%) | 0 (Growth inhibition rate; 0 to 10%) | 1 (Growth inhibition rate; 11 to 30%) | – | 5 (Growth inhibition rate; 91 to 100%) | 5 (Growth inhibition rate; 91 to 100%) | 5 (Growth inhibition rate; 91 to 100%) | 0 (Growth inhibition rate; 0 to 10%) | 0 (Growth inhibition rate; 0 to 10%) | – | – | – | – | – | – | – | – | – | –
10 | CC(=O)Oc1cc(Cl)nnc1Oc1ccccc1C1CC1 [Example 323] | 5 (Growth inhibition rate; 91 to 100%) | 5 (Growth inhibition rate; 91 to 100%) | 3 (Growth inhibition rate; 51 to 70%) | 4 (Growth inhibition rate; 71 to 90%) | 5 (Growth inhibition rate; 91 to 100%) | 5 (Growth inhibition rate; 91 to 100%) | 5 (Growth inhibition rate; 91 to 100%) | 5 (Growth inhibition rate; 91 to 100%) | 0 (Growth inhibition rate; 0 to 10%) | 0 (Growth inhibition rate; 0 to 10%) | – | – | – | – | – | – | – | – | – | –
